{"source": "paper PMC4399838", "about": "“Antipsychotic-Like Effect of the Muscarinic Acetylcholine Receptor Agonist BuTAC in Non-Human Primates” (PLoS ONE, 2015)", "target": "T1, M4AChR (Homo sapiens, UniProt P08173)", "T1 sequence (P08173 1-479)": "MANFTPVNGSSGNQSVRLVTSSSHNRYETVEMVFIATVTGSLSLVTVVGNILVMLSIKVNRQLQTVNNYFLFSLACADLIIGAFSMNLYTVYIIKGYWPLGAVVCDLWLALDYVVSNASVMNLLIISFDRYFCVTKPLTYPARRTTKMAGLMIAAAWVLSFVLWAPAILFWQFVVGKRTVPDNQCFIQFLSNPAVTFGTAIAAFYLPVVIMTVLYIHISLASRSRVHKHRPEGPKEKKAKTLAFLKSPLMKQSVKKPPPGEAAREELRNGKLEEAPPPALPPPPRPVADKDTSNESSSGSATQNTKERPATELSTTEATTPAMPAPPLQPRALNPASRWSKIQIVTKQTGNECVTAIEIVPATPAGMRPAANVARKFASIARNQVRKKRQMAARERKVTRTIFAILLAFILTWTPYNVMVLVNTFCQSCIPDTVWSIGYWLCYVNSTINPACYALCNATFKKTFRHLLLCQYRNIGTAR", "assay": "Competitive radioligand binding", "data": [{"compound": "CCCSc1nsnc1[C@H]1CN2CCC[C@H]1C2", "note": "[PTAC, (5R,6R) 6-(3-propylthio-1,2,5-thiadiazol-4-yl)-1-azabicyclo-[3.2.1]-octane]", "values": [{"measurement": "Ki", "result": 282, "unit": "pM"}]}]}
